Values after ≈ are worked out from the molar mass of the structure shown. Blank lines part the entries; values can stand above or below the compound they belong to.
Columns and labels:
P-gp [1] = assay: P-gp induction, intracellular accumulation of Rh123 in LS180 cells; format: cell-based
P-gp [2] = molecular target: P-gp (Homo sapiens, UniProt P08183); assay: P-gp inhibition, intracellular accumulation of Rh123 in LS180 cells; format: cell-based
[3] = Plasma protein binding, rapid equilibrium dialysis; format: in vitro ADME; conditions: rat, pH 7.4
[4] = Pharmacokinetics and oral bioavailability after oral and IV administration; format: in vivo; conditions: rat
Caco-2 barrier = conditions: ref 50 (Lautenschlager et al.); cited from earlier work
GI permeability, PAMPA = format: in vitro ADME; conditions: pH 7.4
pKa, UV-metric method = format: physicochemical; conditions: Britton-Robinson buffer, pH 1.81
CYP2D6 [5] = assay: Western blot of liver CYP2D6 protein expression; format: in vivo; conditions: rat liver, crocetin with donepezil compared to only donepezil
[6] = RBC partitioning in rat blood and plasma; format: in vitro ADME; conditions: fresh whole blood and reference plasma
[7] = Organ distribution after IV administration; format: in vivo; conditions: rat, IV 10 mg/kg, 5 min after dosing
[8] = Metabolic stability in liver microsomes; format: in vitro ADME, human, monkey, dog, rat, mouse; conditions: MLM, RLM, DLM, MkLM, HLM; 1 mg/mL protein, 5 µM, 30 min
[9] = Equilibrium solubility in biorelevant media, shake-flask method; format: physicochemical; conditions: water, 37 °C, thermodynamic from solid
[10] = Plasma stability in rat plasma; format: in vitro ADME; conditions: 5 µM, 2 h, 37°C
[11] = systemic circulation after oral administration of crocin; cited from earlier work
CYP2C8 = molecular target: T1, CYP2C8 (Homo sapiens, UniProt P10632); assay: CYP inhibition in HLM, CYP2C8; format: biochemical; conditions: IC50 (μM), amodiaquine N-deethylation
T1 sequence (P10632 1-490): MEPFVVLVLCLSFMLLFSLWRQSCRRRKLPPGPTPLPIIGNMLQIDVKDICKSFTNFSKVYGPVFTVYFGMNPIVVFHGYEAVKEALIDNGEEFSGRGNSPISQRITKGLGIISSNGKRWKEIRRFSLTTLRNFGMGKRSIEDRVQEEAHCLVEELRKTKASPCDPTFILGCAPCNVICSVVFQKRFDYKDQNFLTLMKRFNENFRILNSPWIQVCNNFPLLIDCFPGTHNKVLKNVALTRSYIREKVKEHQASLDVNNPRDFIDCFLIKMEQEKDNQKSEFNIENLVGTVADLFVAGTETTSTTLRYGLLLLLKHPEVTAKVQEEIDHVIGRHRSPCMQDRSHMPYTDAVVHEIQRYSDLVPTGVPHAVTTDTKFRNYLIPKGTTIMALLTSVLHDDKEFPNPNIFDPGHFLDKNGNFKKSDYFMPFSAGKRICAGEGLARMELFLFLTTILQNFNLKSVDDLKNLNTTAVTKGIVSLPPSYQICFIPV

CYP3A4 = assay: Western blot of liver CYP3A4 protein expression; format: in vivo; conditions: rat liver, crocetin with galantamine compared to only galantamine
[12] = Intrabrain distribution after IV administration; format: in vivo; conditions: rat, IV 10 mg/kg, 5 min after dosing
[13] = Chemical stability in SGF and SIF; format: physicochemical; conditions: 37 °C, 10 µM
CYP2D6 [14] = molecular target: CYP2D6 (Homo sapiens, UniProt P10635); assay: CYP inhibition in HLM, CYP2D6; conditions: IC50 (μM), dextromethorphan O-demethylation
Chain of CYP2D6 (Homo sapiens, UniProt P10635) (P10635 whole entry): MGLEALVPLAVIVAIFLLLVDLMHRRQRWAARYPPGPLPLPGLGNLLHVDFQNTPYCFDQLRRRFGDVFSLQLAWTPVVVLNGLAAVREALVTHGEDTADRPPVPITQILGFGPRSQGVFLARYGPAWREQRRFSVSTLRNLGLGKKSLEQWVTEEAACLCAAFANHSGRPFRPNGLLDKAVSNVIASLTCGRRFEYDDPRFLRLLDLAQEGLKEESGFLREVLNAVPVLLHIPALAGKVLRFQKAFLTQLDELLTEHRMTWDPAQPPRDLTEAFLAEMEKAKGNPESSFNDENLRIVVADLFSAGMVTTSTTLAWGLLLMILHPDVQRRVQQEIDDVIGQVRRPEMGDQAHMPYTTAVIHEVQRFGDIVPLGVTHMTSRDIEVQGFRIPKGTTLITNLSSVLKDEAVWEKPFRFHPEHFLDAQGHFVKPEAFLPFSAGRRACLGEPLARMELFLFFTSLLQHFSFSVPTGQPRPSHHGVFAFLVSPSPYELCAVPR

[15] = standards: high / moderate / low aqueous solubility; cited from earlier work
[16] = female, Wistar, plasma, other: oral and intravenous

Chain of P-gp (Homo sapiens, UniProt P08183) (P08183 whole entry): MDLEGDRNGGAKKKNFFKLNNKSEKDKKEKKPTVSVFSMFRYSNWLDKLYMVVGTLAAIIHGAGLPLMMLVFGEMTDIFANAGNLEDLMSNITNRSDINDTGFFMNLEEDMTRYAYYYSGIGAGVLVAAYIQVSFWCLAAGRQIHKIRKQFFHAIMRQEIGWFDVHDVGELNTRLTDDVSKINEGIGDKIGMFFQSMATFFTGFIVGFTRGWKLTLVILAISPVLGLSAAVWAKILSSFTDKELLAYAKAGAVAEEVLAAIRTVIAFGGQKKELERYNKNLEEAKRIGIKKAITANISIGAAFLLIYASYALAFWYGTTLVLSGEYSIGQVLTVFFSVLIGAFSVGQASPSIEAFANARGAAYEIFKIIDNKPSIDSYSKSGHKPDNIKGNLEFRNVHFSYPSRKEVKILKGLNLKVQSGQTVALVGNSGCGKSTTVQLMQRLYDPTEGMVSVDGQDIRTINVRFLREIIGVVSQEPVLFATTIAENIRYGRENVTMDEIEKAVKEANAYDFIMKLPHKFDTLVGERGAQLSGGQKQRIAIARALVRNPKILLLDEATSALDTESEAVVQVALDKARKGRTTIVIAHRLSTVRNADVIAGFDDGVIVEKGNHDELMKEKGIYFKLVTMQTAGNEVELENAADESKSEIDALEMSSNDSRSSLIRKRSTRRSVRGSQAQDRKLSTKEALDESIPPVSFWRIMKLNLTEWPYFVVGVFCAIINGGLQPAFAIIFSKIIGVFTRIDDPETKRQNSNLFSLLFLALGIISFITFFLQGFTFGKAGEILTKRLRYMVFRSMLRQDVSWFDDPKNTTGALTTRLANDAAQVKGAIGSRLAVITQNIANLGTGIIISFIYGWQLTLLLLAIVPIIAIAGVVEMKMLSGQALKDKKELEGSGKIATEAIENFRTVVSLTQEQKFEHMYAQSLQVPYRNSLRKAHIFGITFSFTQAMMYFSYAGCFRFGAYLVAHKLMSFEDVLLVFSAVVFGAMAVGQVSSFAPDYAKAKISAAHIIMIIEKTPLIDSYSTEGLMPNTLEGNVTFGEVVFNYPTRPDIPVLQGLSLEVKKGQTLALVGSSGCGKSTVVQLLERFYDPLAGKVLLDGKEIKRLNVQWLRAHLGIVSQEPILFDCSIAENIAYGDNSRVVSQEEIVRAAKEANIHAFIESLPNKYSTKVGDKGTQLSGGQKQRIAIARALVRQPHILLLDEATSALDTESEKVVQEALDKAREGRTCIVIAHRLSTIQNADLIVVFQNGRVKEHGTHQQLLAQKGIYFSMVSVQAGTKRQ

Structure (SMILES): CO[C@H]1/C=C/O[C@@]2(C)Oc3c(C)c(O)c4c(O)c(c(/C=N/N5CCN(C)CC5)c(O)c4c3C2=O)NC(=O)/C(C)=C\C=C\[C@H](C)[C@H](O)[C@@H](C)[C@@H](O)[C@@H](C)[C@H](OC(C)=O)[C@@H]1C [rifampicin, reference compound]
P-gp induction (decrease in intracellular accumulation of Rh123) (P-gp [1]; standard, 10 µM): significant induction of P-gp

P-gp inhibition (increase in intracellular accumulation of Rh123) (P-gp [2]; standard, 10 µM): significant inhibition of P-gp
Structure (SMILES): O[C@@H](COc1cccc2ncccc12)CN1CCN([C@@H]2c3ccccc3[C@@H]3[C@H](c4ccccc42)C3(F)F)CC1 [zosuquidar, reference compound]

fraction unbound at 4 h, 5 µM [3]: 0.03
P-gp inhibitory activity (P-gp [2]; Rh123, 1 to 50 μM): no marked P-gp inhibitory activity
clearance [4, 16]: ≤ 16.7 mL/min/kg
half-life [4, 16]: > 2 h
maximum plasma concentration ([4]; oral 20 mg/kg): 23 µM
Papp at 5 h, 5 μM (GI permeability, PAMPA): 3.89 ×10⁻⁶ cm/s
pKa (pKa, UV-metric method): 5.35
CYP2D6 protein expression (down-regulation) (CYP2D6 [5]): 0.73 fold
blood plasma ratio at 0 min, 1000 nM [6]: 0.36 ± 0.01
blood plasma ratio at 60 min, 1000 nM [6]: 0.39 ± 0.04
remaining intact in liver microsomes [8]: > 83%
solubility at 1 h [9]: 0.6 µg/mL (≈ 1.83 µM)
degradation in plasma [10]: < 5%
IC50 (CYP2C8): 35.3 µM
CYP3A4 protein expression (down-regulation) (CYP3A4): 0.61 fold
order of concentrations in brain parts [12]: cortex > cerebellum > hippocampus
intact (chemical stability) ([13]; SGF (pH 1.2), 2 h): 72%
intact (chemical stability) ([13]; SIF (pH 6.8), 4 h): 68%
IC50 (CYP2D6 [14]): 20.4 µM
Structure (SMILES): CC(/C=C/C=C(\C)C(=O)O)=C\C=C\C=C(C)\C=C\C=C(/C)C(=O)O [crocetin]
Papp (Caco-2 barrier): 2.6 ± 0.6 × 10^–5 cm/s
order of concentrations in organs [7]: liver > lungs > heart > kidney > spleen > brain
exposure of crocetin relative to crocin [11]: 56–81 fold
P-gp induction (P-gp [1]; Rh123, 25–50 μM): 22–24%

Structure (SMILES): CCCC1O[C@@H]2C[C@H]3[C@@H]4CCC5=CC(=O)C=C[C@]5(C)[C@H]4[C@@H](O)C[C@]3(C)[C@]2(C(=O)CO)O1 (stereo partly drawn) [budesonide]
aqueous solubility (category of the standard) [15]: 10 to 100 µg/mL

Structure (SMILES): COc1ccc(CCN2CCC(Nc3nc4ccccc4n3Cc3ccc(F)cc3)CC2)cc1 [astemizole]
aqueous solubility (category of the standard) [15]: < 10 µg/mL
